Data published in ChEMBL document CHEMBL1140941 (J Med Chem, 2009).
Activity calls are given as the source filed them. No cut-off for these calls is given here.

How the values were obtained:
[1] = biological target: T1, Peroxisome proliferator-activated receptor alpha (Homo sapiens) (UniProt Q07869); assay: Antagonist activity at PPARalpha expressed in african green monkey CV1 cells co-expressing MH100 by luciferase reporter gene assay; assay type: functional, cell-based; conditions: CV-1
T1 sequence (whole entry): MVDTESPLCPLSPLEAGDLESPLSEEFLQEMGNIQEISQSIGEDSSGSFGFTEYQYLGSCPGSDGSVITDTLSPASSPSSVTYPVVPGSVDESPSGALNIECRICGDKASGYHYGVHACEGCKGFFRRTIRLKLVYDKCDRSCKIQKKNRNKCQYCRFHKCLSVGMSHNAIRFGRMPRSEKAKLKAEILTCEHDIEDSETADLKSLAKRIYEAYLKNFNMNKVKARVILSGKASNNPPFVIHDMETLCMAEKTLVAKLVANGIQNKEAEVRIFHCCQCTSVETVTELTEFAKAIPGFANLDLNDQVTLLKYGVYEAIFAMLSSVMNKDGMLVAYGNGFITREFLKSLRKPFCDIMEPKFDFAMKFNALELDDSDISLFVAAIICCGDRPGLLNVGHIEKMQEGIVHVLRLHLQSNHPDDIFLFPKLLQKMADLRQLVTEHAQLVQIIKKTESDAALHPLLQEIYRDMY

[2] = AUC (0 to t) in CD rat at 3 mg/kg, po; assay type: ADME, organism-based; parameters: dose 3 mg/kg, route oral; conditions: plasma
[3] = biological target: Retinoic acid receptor RXR-alpha (Homo sapiens) (UniProt P19793); assay: Agonist activity at RXRalpha-LBD expressed in african green monkey CV1 cells co-expressing MH100 up to 10 uM by luciferase reporter gene assay relative to control; assay type: functional, cell-based; conditions: CV-1
Chain of Retinoic acid receptor RXR-alpha (Homo sapiens) (P19793 whole entry, the tested form may be a part): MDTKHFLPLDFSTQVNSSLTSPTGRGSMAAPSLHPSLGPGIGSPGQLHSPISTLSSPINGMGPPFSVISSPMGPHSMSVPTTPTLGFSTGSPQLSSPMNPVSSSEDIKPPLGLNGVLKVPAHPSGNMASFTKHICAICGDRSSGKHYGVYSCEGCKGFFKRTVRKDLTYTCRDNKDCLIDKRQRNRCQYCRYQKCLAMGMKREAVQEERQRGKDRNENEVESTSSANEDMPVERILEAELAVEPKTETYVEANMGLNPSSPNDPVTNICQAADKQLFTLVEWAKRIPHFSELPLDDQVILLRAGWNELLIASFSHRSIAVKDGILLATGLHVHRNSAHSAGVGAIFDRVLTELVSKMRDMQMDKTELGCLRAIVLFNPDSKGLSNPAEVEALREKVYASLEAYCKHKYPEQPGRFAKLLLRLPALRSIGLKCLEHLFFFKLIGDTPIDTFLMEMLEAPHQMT

Rattus norvegicus = assay: Clearance in CD rat assessed as liver blood flow at 3 mg/kg; assay type: ADME, organism-based; parameters: dose 3 mg/kg; conditions: in vivo
[4] = biological target: Estrogen receptor beta (Homo sapiens) (UniProt Q92731); assay: Agonist activity at gal-ERbeta expressed in african green monkey CV1 cells co-expressing MH100 by luciferase reporter gene assay; assay type: functional, cell-based; conditions: CV-1
Chain of Estrogen receptor beta (Homo sapiens) (Q92731 whole entry): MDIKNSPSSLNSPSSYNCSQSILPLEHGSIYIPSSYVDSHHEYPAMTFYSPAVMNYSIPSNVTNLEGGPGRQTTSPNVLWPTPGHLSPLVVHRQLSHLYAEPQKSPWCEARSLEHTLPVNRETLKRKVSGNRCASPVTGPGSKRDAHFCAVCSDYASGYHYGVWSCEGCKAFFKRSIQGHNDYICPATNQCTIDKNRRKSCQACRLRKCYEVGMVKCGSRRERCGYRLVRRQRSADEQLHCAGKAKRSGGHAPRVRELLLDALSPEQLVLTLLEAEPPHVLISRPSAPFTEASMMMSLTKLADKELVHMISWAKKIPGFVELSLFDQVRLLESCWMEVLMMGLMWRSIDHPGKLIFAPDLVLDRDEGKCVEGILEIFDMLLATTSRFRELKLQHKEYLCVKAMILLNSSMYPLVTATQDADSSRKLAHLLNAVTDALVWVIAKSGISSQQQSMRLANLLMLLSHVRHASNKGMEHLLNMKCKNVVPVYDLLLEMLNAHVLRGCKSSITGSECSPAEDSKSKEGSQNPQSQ

[5] = Oral bioavailability in CD rat at 3 mg/kg; assay type: ADME, organism-based; conditions: in vivo
[6] = biological target: T2, Bile acid receptor (Homo sapiens) (UniProt Q96RI1); assay: Antagonist activity at human FXR expressed in african green monkey CV1 cells co-expressing RXRE with RXR co-factor by luciferase reporter gene assay; assay type: functional, cell-based; conditions: CV-1
T2 sequence (whole entry): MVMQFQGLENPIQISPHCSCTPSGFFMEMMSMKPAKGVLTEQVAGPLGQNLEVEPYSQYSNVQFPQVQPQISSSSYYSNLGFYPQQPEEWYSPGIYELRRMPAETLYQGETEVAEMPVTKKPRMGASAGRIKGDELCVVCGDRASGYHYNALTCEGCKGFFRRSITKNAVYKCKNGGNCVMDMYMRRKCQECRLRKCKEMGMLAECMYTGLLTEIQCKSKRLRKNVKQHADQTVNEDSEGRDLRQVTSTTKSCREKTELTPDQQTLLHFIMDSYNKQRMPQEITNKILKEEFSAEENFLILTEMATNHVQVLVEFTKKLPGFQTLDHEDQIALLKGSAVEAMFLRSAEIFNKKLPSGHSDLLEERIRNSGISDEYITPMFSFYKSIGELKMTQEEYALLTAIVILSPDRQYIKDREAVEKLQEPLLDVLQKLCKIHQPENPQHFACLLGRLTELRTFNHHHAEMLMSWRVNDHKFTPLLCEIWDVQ

[7] = biological target: T3, Progesterone receptor (Homo sapiens) (UniProt P06401); assay: Antagonist activity at gal-PR expressed in african green monkey CV1 cells co-expressing MH100 at 10 uM by luciferase reporter gene assay; assay type: functional, cell-based; conditions: CV-1
T3 sequence (whole entry): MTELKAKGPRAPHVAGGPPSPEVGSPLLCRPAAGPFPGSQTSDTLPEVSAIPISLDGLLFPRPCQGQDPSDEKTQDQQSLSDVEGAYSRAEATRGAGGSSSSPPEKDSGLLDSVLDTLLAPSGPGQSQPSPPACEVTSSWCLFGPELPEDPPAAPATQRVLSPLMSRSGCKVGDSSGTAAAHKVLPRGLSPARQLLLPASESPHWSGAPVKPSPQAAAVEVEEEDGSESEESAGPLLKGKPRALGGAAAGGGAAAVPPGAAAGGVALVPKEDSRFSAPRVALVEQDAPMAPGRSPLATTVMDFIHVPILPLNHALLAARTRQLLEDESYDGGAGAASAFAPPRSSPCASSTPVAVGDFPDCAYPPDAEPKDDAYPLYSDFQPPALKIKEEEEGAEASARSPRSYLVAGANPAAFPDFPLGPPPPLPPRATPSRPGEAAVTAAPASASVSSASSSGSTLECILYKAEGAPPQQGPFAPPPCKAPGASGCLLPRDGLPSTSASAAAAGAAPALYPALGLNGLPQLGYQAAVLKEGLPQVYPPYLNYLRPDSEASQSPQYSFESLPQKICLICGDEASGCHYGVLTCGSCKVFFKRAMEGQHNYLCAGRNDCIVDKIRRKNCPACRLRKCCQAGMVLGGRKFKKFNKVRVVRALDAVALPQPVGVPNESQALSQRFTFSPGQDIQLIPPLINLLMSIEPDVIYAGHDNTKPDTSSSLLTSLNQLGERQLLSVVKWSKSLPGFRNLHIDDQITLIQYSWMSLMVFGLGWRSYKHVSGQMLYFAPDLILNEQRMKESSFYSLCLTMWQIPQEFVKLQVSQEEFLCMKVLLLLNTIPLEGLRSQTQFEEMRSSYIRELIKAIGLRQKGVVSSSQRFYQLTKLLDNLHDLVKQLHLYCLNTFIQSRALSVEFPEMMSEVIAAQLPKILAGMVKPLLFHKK

[8] = biological target: Oxysterols receptor LXR-beta (Homo sapiens) (UniProt P55055); assay: Agonist activity at LXRbeta expressed in african green monkey CV1 cells co-expressing LXRE up to 10 uM by luciferase reporter gene assay relative to control; assay type: functional, cell-based; conditions: CV-1
Chain of Oxysterols receptor LXR-beta (Homo sapiens) (P55055 whole entry): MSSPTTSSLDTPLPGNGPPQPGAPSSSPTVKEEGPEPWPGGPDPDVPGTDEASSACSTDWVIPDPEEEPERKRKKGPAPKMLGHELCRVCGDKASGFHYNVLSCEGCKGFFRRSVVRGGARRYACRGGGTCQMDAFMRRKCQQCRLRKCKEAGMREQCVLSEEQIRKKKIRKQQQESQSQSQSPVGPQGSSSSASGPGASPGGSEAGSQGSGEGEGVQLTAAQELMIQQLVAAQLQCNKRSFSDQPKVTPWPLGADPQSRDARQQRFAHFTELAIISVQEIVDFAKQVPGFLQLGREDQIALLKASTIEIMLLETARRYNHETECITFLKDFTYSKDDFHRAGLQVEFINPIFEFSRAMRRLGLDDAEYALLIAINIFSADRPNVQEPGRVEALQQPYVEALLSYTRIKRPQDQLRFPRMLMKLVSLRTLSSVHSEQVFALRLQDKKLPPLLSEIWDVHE

Activity [1]: inactive
AUC(0-t) [2]: 7 µM·h
Activity [3]: inactive
LBF (Rattus norvegicus): 10%
Activity [4]: inactive
bioavailability [5]: 37.6%
Activity [6]: inactive
inhibition [7]: 14%
Activity [8]: inactive
SMILES: CC(C)OC(=O)C1=CN(C(=O)c2ccc(F)c(F)c2)CC(C)(C)c2c1[nH]c1ccccc21 [TUROFEXORATE ISOPROPYL]
